Results taken from US20030055065A1, “Tricyclic amide and urea compounds useful for inhibition of G-protein function and for treatment of proliferative diseases” (priority 1993, published 2003).
Values joined by “and” are separate entries in the source; they are usually repeats but may differ in a detail not shown here. Identical values can stand only once.

Biological target: T1, farnesyl protein transferase (FPT), partially purified from rat brain (Rattus norvegicus, UniProt Q02293+Q04631)
T1 construct: were partially purified from rat brain by ammonium sulfate fractionation followed by Q-Sepharose
Assay: Inhibition of farnesyl protein transferase (transfer of [3H]farnesyl to Ras-CVLS)
Format: biochemical
Conditions: Ras-CVLS farnesylation, partially purified rat brain FPT; read-out: FPT IC50
Description: 1. In vitro enzyme assays: Inhibition of farnesyl protein transferase and geranylgeranyl protein transferase.
Human farnesyl protein transferase was also expressed in E. coli, using cDNA clones encoding both the α and β subunits. […] Human farnesyl protein transferase was partially-purified from the soluble protein fraction of E. coli as described above. […] Two forms of val^12-Ha-Ras protein were prepared as substrates for these enzymes, differing in their carboxy terminal sequence. One form terminated in cysteine-valine-leucine-serine (Ras-CVLS) the other in cystein-valine-leucine-leucine (Ras-CVLL). Ras-CVLS is a substrate for the farnesyl protein transferase while Ras-CVLL is a substrate for geranylgeranyl protein transferase I. The cDNAs encoding these proteins were constructed so that the proteins contain an amino-terminal extension of 6 histidine residues. Both proteins were expressed in Escherichia coli and purified using metal chelate affinity chromatography. The radiolabelled isoprenyl pyrophosphate substrates, [^3H]farnesyl pyrophosphate and [3H]geranylgeranyl pyrophosphate, were purchased from DuPont/New England Nuclear.
The reaction was allowed to proceed for 30 minutes at room temperature and then stopped with 0.5 ml of 4% sodium dodecyl sulfate (SDS) followed by 0.5 ml of cold 30% trichloracetic acid (TCA). Samples were allowed to sit on ice for 45 minutes and precipitated Ras protein was then collected on GF/C filter paper mats using a Brandel cell harvester. […] Percent inhibition was calculated relative to the DMSO vehicle control.

T1 sequence (Q02293 whole entry, one chain of several): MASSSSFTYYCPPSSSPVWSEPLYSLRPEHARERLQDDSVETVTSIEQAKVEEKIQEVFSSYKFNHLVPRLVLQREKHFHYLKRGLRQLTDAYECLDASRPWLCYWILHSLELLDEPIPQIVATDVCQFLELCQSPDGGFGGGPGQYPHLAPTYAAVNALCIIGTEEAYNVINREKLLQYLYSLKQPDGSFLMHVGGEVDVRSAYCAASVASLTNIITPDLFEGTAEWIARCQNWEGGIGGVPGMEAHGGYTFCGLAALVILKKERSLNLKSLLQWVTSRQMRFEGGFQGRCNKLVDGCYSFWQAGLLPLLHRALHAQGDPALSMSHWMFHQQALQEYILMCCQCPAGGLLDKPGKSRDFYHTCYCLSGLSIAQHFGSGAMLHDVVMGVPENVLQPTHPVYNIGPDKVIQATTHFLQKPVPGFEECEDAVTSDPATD

Row | SMILES | IC50
1 | CC(=O)N1CCC(=C2c3ccc(Cl)cc3CCc3c(Cl)ccnc32)CC1 [Example 135] | 7.7 µM
2 | COc1ccnc2c1CCc1cc(Cl)ccc1C2=C1CCN(C(C)=O)CC1 [Example 136] | 11.5 µM
3 | CC(=O)N1CCC(=C2c3ccccc3CCc3c2[nH]c2ccccc32)CC1 [Example 140] | 15.7 µM
4 | CC(=O)N1CCC(=C2c3ccncc3CCc3cc(Cl)ccc32)CC1 [Example 143] | 35.4 µM
5 | COCC(=O)N1CCC(=C2c3ccc(F)cc3CCc3cccnc32)CC1 [Example 145] | > 10 µM
6 | CC(=O)N1CCN(C2c3ccc(Cl)cc3CCc3cccnc32)CC1C (centres unmarked) [Example 149] | 10.8 µM
7 | O=C(c1cc[n+]([O-])cc1)N1CCC(=C2c3ccccc3CCc3ccccc32)CC1 [Example 151] | 15 µM
8 | O=C(c1ccc(=O)[nH]c1)N1CCC(=C2c3ccccc3CCc3ccccc32)CC1 [Example 152] | 15 µM
9 | CC(=O)N1CCN(C2c3ccccc3CCc3ccccc32)CC1 [Example 153] | 29.6 µM
10 | CC(C)(C)OC(=O)N1CCC(CC(=O)N2CCN(C3c4ccc(Cl)cc4CCc4cccnc43)CC2)CC1 (centres unmarked) [Example 193] | 7.4 µM
11 | CC(=O)N1CCCC(C(=O)N2CCN(C3c4ccc(Cl)cc4CCc4cccnc43)CC2)C1 (centres unmarked) [Example 194] | 4.3 µM
12 | CN1CCCC(C(=O)N2CCN(C3c4ccc(Cl)cc4CCc4cccnc43)CC2)C1 (centres unmarked) [Example 195] | 6.8 µM
13 | CC(=O)N1CCCC(CC(=O)N2CCN(C3c4ccc(Cl)cc4CCc4cccnc43)CC2)C1 (centres unmarked) [Example 205] | 3.1 µM
14 | O=C(Cc1ccc(O)cc1)NCC(=O)N1CCN(C2c3ccc(Cl)cc3CCc3cccnc32)CC1 (centres unmarked) [Example 210] | 7.93 µM
15 | O=C(Cc1cc[n+]([O-])cc1)N1CCC(=C2c3ccc(Cl)cc3CCc3ccc[n+]([O-])c32)CC1 [Example 232] | 6 µM
16 | O=C(Nc1cccnc1)N1CCC(=C2c3ccc(Cl)cc3CCc3c(On4nnc5ccccc54)ccnc32)CC1 [Example 262] | 0.82 µM
17 | CC(C)(C(=O)N1CCC(C2c3ccc(Cl)cc3C=Cc3cccnc32)CC1)c1cccnc1 (centres unmarked) [Example 268] | 1.22 µM
18 | O=C(Cc1cccnc1)N1CCC(C2c3ccc(Cl)cc3C=Cc3c(Cl)ccnc32)CC1 (centres unmarked) [Example 273] | 0.84 µM
19 | CC(C)(C(=O)N1CCC(=C2c3ccc(Cl)cc3CCc3cc(Br)cnc32)CC1)c1ccc[n+]([O-])c1 [Example 360] | 0.59 µM

More lines, now with the values ahead:

Row | IC50 | SMILES
20 | 3.71 µM | O=C(Cc1csc2ccccc12)N1CCC(=C2c3ccc(Cl)cc3CCc3cccnc32)CC1 [Example 221]
21 | 2.06 µM | O=C(Cc1ccncc1)N1CCC(=C2c3ccc(Cl)cc3CCc3ccc[n+]([O-])c32)CC1 [Example 230]
22 | 3.12 µM | O=C(Cc1cccnc1)N1CCC(=C2c3ccc(Cl)cc3CCc3cc(O)cnc32)CC1 [Example 240]
23 | 7.2 µM | O=C(Cc1cccnc1)N1CCC(=C2c3ccc(Cl)cc3CCc3c(O)ccnc32)CC1 [Example 252]
24 | 4.3 µM | O=C(Cc1cccnc1)N1CCC(=C2c3ccc(Cl)cc3CCc3c2ncc(Br)c3O)CC1 [Example 253]
25 | 4.9 µM | C[S+]([O-])c1ccnc2c1CCc1cc(Cl)ccc1C2=C1CCN(C(=O)Cc2cccnc2)CC1 (centres unmarked) [Example 256]
26 | 2.3 µM | COC(=O)CSc1ccnc2c1CCc1cc(Cl)ccc1C2=C1CCN(C(=O)Cc2cccnc2)CC1 [Example 257]
27 | 10.8 µM | O=C(Cc1cccnc1)N1CCC(=C2c3ccc(Cl)cc3CCc3c(SCc4ccccc4)ccnc32)CC1 [Example 258]
28 | 2.2 µM | Cn1nnnc1Sc1ccnc2c1CCc1cc(Cl)ccc1C2=C1CCN(C(=O)Cc2cccnc2)CC1 [Example 259]
29 | 9.8 µM | O=C(Nc1cccnc1)N1CCC(=C2c3ccc(Cl)cc3CCc3c(O)ccnc32)CC1 [Example 263]
30 | 2.3 µM | O=C(Nc1cccnc1)N1CCC(=C2c3ccc(Cl)cc3C=Cc3cccnc32)CC1 [Example 277]
31 | 7.7 µM | O=C1Cc2cc(Cl)ccc2C(=C2CCN(C(=O)Cc3cccnc3)CC2)c2ncccc21 [Example 279]
32 | 23 µM | O=C(Cc1cccnc1)N1CCC(=C2c3ccc(Cl)cc3CC(O)c3cccnc32)CC1 (centres unmarked) [Example 280]
33 | 4.5 µM | O=C(Cc1ccncc1)N1CCC(=C2c3ccc(Cl)cc3CC(O)c3cccnc32)CC1 (centres unmarked) [Example 282]
34 | 4.3 µM | O=C(Cc1cccnc1)N1CCC(=C2c3ccc(Cl)cc3C(O)Cc3cccnc32)CC1 (centres unmarked) [Example 284]
35 | 4.1 µM | O=C(C(=O)N1CCC(=C2c3ccc(Cl)cc3CCc3cccnc32)CC1)c1ccccc1 [Example 296]
36 | 1.34 µM | CC(C)(C(=O)N1CCC(=C2c3ccc(Cl)cc3CCc3cccnc32)CC1)c1ccncc1 [Example 299]
37 | 4.9 µM | O=C(Cc1cccnc1)N1CCC(=C2c3ccccc3CCc3cccnc32)CC1 [Example 323]
38 | 0.062 µM and 0.073 µM | O=C(Cc1ccncc1)N1CCC(=C2c3ccc(Cl)cc3CCc3c2ncc(Br)c3Cl)CC1 [Example 356]
39 | 0.32 µM | CC(C)(C(=O)N1CCC(=C2c3ccc(Cl)cc3CCc3cc(Br)cnc32)CC1)c1ccncc1 [Example 361]

Same assay, conditions: at 10 μM

Row | FPT inhibition | SMILES
40 | 23% @ | O=C(N[C@@H](Cc1ccccc1)C(=O)N1CCN(C2c3ccc(Cl)cc3CCc3cccnc32)CC1)OCc1ccccc1 (some centres unmarked) [Example 213]
41 | 0% @ | CC(C)(C)OC(=O)N[C@@H](Cc1ccccc1)C(=O)N1CCN(C2c3ccc(Cl)cc3CCc3cccnc32)CC1 (some centres unmarked) [Example 214]
42 | 34% @ | O=C([C@H](Cc1ccccc1)N1C(=O)c2ccccc2C1=O)N1CCN(C2c3ccc(Cl)cc3CCc3cccnc32)CC1 (some centres unmarked) [Example 216]

Same assay, conditions: at 11 μM

Row | FPT inhibition | SMILES
43 | 20% @ | CC(C)(C)OC(=O)N1CCC(C(=O)N2CCN(C3c4ccc(Cl)cc4CCc4cccnc43)CC2)CC1 (centres unmarked) [Example 202]

Same assay, conditions: at 12 μM

Row | FPT inhibition | SMILES
44 | 45% at 12 μM | O=C(c1cc[n+]([O-])cc1)N1CCC(=C2c3ccccc3CCc3cc(Cl)ccc32)CC1 [Example 146]
45 | 40% @ | O=C(NCC(=O)N1CCN(C2c3ccc(Cl)cc3CCc3cccnc32)CC1)OCc1ccccc1 (centres unmarked) [Example 207]

Same assay, conditions: at 13 μM

Row | FPT inhibition | SMILES
46 | 30% @ | NC(Cc1ccccc1)C(=O)N1CCN(C2c3ccc(Cl)cc3CCc3cccnc32)CC1 (centres unmarked) [Example 215]

Same assay, conditions: at 13.4 μM

Row | FPT inhibition | SMILES
47 | 16% at 13.4 μM | O=C(c1cc[n+]([O-])cc1)N1CCC(=C2c3ccc(Cl)cc3CCc3ccc[n+]([O-])c32)CC1 [Example 131]

Same assay, conditions: at 14.1 μM

Row | FPT inhibition | SMILES
48 | 16% at 14.1 μM | CC(=O)N1CCC(=C2c3ccc(Cl)cc3CCc3cc(C(C)(C)C)c[n+]([O-])c32)CC1 [Example 133]

Same assay, conditions: at 15 μM

Row | FPT inhibition | SMILES
49 | 22% at 15 μM | CC(=O)N1CCC(=C2c3ccc(Cl)cc3CCc3c(C)cc[n+]([O-])c32)CC1 [Example 132]

Same assay, conditions: at 15.2 μM

Row | FPT inhibition | SMILES
50 | 37% at 15.2 μM | CC(=O)c1cnc2c(c1)CCc1cc(Cl)ccc1C2=C1CCN(C(C)=O)CC1 [Example 139]

Same assay, conditions: at 16.3 μM

Row | FPT inhibition | SMILES
51 | 15% at 16.3 μM | CC(=O)N1CCC(=C2c3ccc(Cl)cc3CC(C)c3cccnc32)CC1 (centres unmarked) [Example 137]

Same assay, conditions: at 16.9 μM

Row | FPT inhibition | SMILES
52 | 38% at 16.9 μM | CC(=O)N1CCC(C2c3ccc(Cl)cc3CCc3cccnc32)CC1 (centres unmarked) [Example 150]

Same assay, conditions: at 18.8 μM

Row | FPT inhibition | SMILES
53 | 0% at 18.8 μM | CC(=O)N1CCC(=C2c3ccccc3CCc3cccnc32)CC1 [Example 147]

Same assay, conditions: at 46 μM

Row | FPT inhibition | SMILES
54 | 47% at 46 μM | O=C(c1cc[n+]([O-])cc1)N1CCC(=C2c3ccncc3CCc3cc(Cl)ccc32)CC1 [Example 144a]

Same assay, conditions: at 50 μM

Row | FPT inhibition | SMILES
55 | 29% at 50 μM | CC(=O)N1CCC(C2c3cc4ccccc4cc3CCc3ccc[n+]([O-])c32)CC1 (centres unmarked) [Example 141]
56 | 30% at 50 μM | CC(=O)N1CCC(=C2c3ccc(Cl)cc3CCc3ncccc32)CC1 [Example 144]
